These are literature values, as cited in patent US20030083378A1, “Eye drops” (priority 2000, published 2003).

Each structure is given as a SMILES string.

The test system of series [1] is respiratory anaphylaxis. Conditions: Japanese Unexamined Patent Publication No. Hei 2-1459.
Series [2] concerns leukotrienes. To be noted: Japanese Unexamined Patent Publication No. Hei 2-1459.

With `CCCc1c(SCCCOc2ccc(C(C)=O)c(OCCCC(=O)O)c2CCC)ccc(C(C)=O)c1O` [KCA-757, 4-[6-acetyl-3-[3-[(4-acetyl-3-hydroxy-2-propylphenyl)thio]propoxy]-2-propylphenoxy]butyric acid], the Solubility entry is “slightly soluble”. Also, the “Inhibitory function on respiratory anaphylaxis” value in series [1] was “inhibitory function on respiratory anaphylaxis”. For the same compound, the Leukotriene antagonist activity result in series [2] was “potent and selective leukotriene antagonist activity”.
